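Cells were grown in 96-well plates and exposed to each compound for 48 hours at five concentrations; endpoints were interpolated linearly between bracketing concentrations, or set to the highest concentration if not reached. The concentration for 50% growth inhibition is given as GI50. TGI denotes the concentration required for complete inhibition of growth.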
Legend:
Experiment in all cases: NCI-60 cell line screen, 48 h; in the data active means GI50 below about 0.43 µM; inactive means the rest
786-0 renal = system: 786-0 renal
A498 renal = system: A498 renal
A549 NSCLC = system: A549 NSCLC
ACHN renal = system: ACHN renal
BT-549 breast = system: BT-549 breast
CAKI-1 renal = system: CAKI-1 renal
CCRF-CEM leukemia = system: CCRF-CEM leukemia
COLO 205 colon = system: COLO 205 colon
DU-145 prostate = system: DU-145 prostate
EKVX NSCLC = system: EKVX NSCLC
HCC-2998 colon = system: HCC-2998 colon
HCT-116 colon = system: HCT-116 colon
HCT-15 colon = system: HCT-15 colon
HL-60(TB) leukemia = system: HL-60(TB) leukemia
HOP-62 NSCLC = system: HOP-62 NSCLC
HOP-92 NSCLC = system: HOP-92 NSCLC
HS 578T breast = system: HS 578T breast
HT29 colon = system: HT29 colon
IGROV1 ovarian = system: IGROV1 ovarian
K-562 leukemia = system: K-562 leukemia
KM12 colon = system: KM12 colon
LOX IMVI melanoma = system: LOX IMVI melanoma
M14 melanoma = system: M14 melanoma
MALME-3M melanoma = system: MALME-3M melanoma
MCF7 breast = system: MCF7 breast
MDA-MB-231 breast = system: MDA-MB-231 breast
MDA-MB-435 = system: MDA-MB-435
MOLT-4 leukemia = system: MOLT-4 leukemia
NCI-H226 lung = system: NCI-H226 lung
NCI-H23 lung = system: NCI-H23 lung
NCI-H460 lung = system: NCI-H460 lung
NCI-H522 lung = system: NCI-H522 lung
NCI/ADR-RES ovarian = system: NCI/ADR-RES ovarian
OVCAR-3 ovarian = system: OVCAR-3 ovarian
OVCAR-4 ovarian = system: OVCAR-4 ovarian
OVCAR-5 ovarian = system: OVCAR-5 ovarian
OVCAR-8 ovarian = system: OVCAR-8 ovarian
PC-3 prostate = system: PC-3 prostate
RPMI-8226 leukemia = system: RPMI-8226 leukemia
RXF 393 renal = system: RXF 393 renal
SF-268 CNS = system: SF-268 CNS
SF-295 CNS = system: SF-295 CNS
SF-539 CNS = system: SF-539 CNS
SK-MEL-2 melanoma = system: SK-MEL-2 melanoma
SK-MEL-28 melanoma = system: SK-MEL-28 melanoma
SK-MEL-5 melanoma = system: SK-MEL-5 melanoma
SK-OV-3 ovarian = system: SK-OV-3 ovarian
SN12C renal = system: SN12C renal
SNB-19 CNS = system: SNB-19 CNS
SNB-75 CNS = system: SNB-75 CNS
SR leukemia = system: SR leukemia
SW-620 colon = system: SW-620 colon
T-47D breast = system: T-47D breast
TK-10 renal = system: TK-10 renal
U251 CNS = system: U251 CNS
UACC-257 melanoma = system: UACC-257 melanoma
UACC-62 melanoma = system: UACC-62 melanoma
UO-31 renal = system: UO-31 renal

O=P(O)(O)C(O)(Cn1ccnc1)P(=O)(O)O
> 78 µM: TGI (SK-MEL-5 melanoma)
inactive: GI50 (786-0 renal) 19 µM | GI50 (A498 renal) > 62.8 µM | GI50 (A549 NSCLC) > 95.7 µM | GI50 (ACHN renal) > 46.2 µM | GI50 (BT-549 breast) > 34.4 µM | GI50 (CAKI-1 renal) > 52.9 µM | GI50 (CCRF-CEM leukemia) > 100 µM | GI50 (COLO 205 colon) > 100 µM | GI50 (DU-145 prostate) > 72.2 µM | GI50 (EKVX NSCLC) > 87.9 µM | GI50 (HCC-2998 colon) 98.2 µM | GI50 (HCT-116 colon) > 53.8 µM | GI50 (HCT-15 colon) > 100 µM | GI50 (HL-60(TB) leukemia) > 71.2 µM | GI50 (HOP-62 NSCLC) > 55 µM | GI50 (HOP-92 NSCLC) > 41.7 µM | GI50 (HS 578T breast) 4.67 µM | GI50 (HT29 colon) > 90.6 µM | GI50 (IGROV1 ovarian) 53.5 µM | GI50 (K-562 leukemia) > 100 µM | GI50 (KM12 colon) > 79.3 µM | GI50 (LOX IMVI melanoma) > 47 µM | GI50 (M14 melanoma) > 53.3 µM | GI50 (MALME-3M melanoma) > 54.1 µM | GI50 (MCF7 breast) > 86.4 µM | GI50 (MDA-MB-231 breast) > 40.6 µM | GI50 (MDA-MB-435) > 100 µM | GI50 (MOLT-4 leukemia) > 100 µM | GI50 (NCI-H226 lung) > 75 µM | GI50 (NCI-H23 lung) > 89.7 µM | GI50 (NCI-H460 lung) > 100 µM | GI50 (NCI-H522 lung) > 100 µM | GI50 (NCI/ADR-RES ovarian) > 64.1 µM | GI50 (OVCAR-3 ovarian) > 66.1 µM | GI50 (OVCAR-4 ovarian) > 100 µM | GI50 (OVCAR-5 ovarian) > 89.2 µM | GI50 (OVCAR-8 ovarian) > 92.3 µM | GI50 (PC-3 prostate) > 59.8 µM | GI50 (RPMI-8226 leukemia) 15.6 µM | GI50 (RXF 393 renal) > 70.5 µM | GI50 (SF-268 CNS) > 100 µM | GI50 (SF-295 CNS) > 100 µM | GI50 (SF-539 CNS) 20.3 µM | GI50 (SK-MEL-2 melanoma) > 100 µM | GI50 (SK-MEL-28 melanoma) > 62.8 µM | GI50 (SK-MEL-5 melanoma) > 43 µM | GI50 (SK-OV-3 ovarian) > 81.1 µM | GI50 (SN12C renal) > 57.7 µM | GI50 (SNB-19 CNS) > 81.2 µM | GI50 (SNB-75 CNS) > 37.4 µM | GI50 (SR leukemia) > 100 µM | GI50 (SW-620 colon) > 100 µM | GI50 (T-47D breast) > 79 µM | GI50 (TK-10 renal) > 36.2 µM | GI50 (U251 CNS) > 59.1 µM | GI50 (UACC-257 melanoma) > 100 µM | GI50 (UACC-62 melanoma) > 65.2 µM | GI50 (UO-31 renal) > 68.3 µM
> 100 µM: TGI (A498 renal) | TGI (A549 NSCLC) | TGI (BT-549 breast) | TGI (CAKI-1 renal) | TGI (CCRF-CEM leukemia) | TGI (COLO 205 colon) | TGI (DU-145 prostate) | TGI (EKVX NSCLC) | TGI (HCC-2998 colon) | TGI (HCT-15 colon) | TGI (HL-60(TB) leukemia) | TGI (HOP-62 NSCLC) | TGI (HOP-92 NSCLC) | TGI (HT29 colon) | TGI (IGROV1 ovarian) | TGI (K-562 leukemia) | TGI (KM12 colon) | TGI (LOX IMVI melanoma) | TGI (M14 melanoma) | TGI (MALME-3M melanoma) | TGI (MCF7 breast) | TGI (MDA-MB-435) | TGI (MOLT-4 leukemia) | TGI (NCI-H226 lung) | TGI (NCI-H23 lung) | TGI (NCI-H460 lung) | TGI (NCI-H522 lung) | TGI (NCI/ADR-RES ovarian) | TGI (OVCAR-3 ovarian) | TGI (OVCAR-4 ovarian) | TGI (OVCAR-5 ovarian) | TGI (OVCAR-8 ovarian) | TGI (PC-3 prostate) | TGI (RPMI-8226 leukemia) | TGI (RXF 393 renal) | TGI (SF-268 CNS) | TGI (SF-295 CNS) | TGI (SF-539 CNS) | TGI (SK-MEL-2 melanoma) | TGI (SK-MEL-28 melanoma) | TGI (SK-OV-3 ovarian) | TGI (SN12C renal) | TGI (SNB-19 CNS) | TGI (SNB-75 CNS) | TGI (SR leukemia) | TGI (SW-620 colon) | TGI (T-47D breast) | TGI (TK-10 renal) | TGI (U251 CNS) | TGI (UACC-257 melanoma) | TGI (UACC-62 melanoma) | TGI (UO-31 renal)
> 84.8 µM: TGI (ACHN renal)
> 45.5 µM: TGI (HS 578T breast)
> 70 µM: TGI (786-0 renal)
> 77.9 µM: TGI (HCT-116 colon)
> 57 µM: TGI (MDA-MB-231 breast)

Cc1noc(C)c1-c1ccc2[nH]c(=O)n3c2c1OC[C@@H]3c1ccccn1
6.25 µM: TGI (A498 renal)
> 32.1 µM: TGI (LOX IMVI melanoma)
inactive: GI50 (786-0 renal) 3.94 µM | GI50 (A549 NSCLC) 2.92 µM | GI50 (ACHN renal) 1.5 µM | GI50 (BT-549 breast) 15.6 µM | GI50 (CCRF-CEM leukemia) 2.07 µM | GI50 (COLO 205 colon) 0.433 µM | GI50 (DU-145 prostate) > 64.3 µM | GI50 (EKVX NSCLC) 2.39 µM | GI50 (HCC-2998 colon) 2 µM | GI50 (HCT-116 colon) 2.84 µM | GI50 (HCT-15 colon) 0.653 µM | GI50 (HOP-62 NSCLC) 0.482 µM | GI50 (IGROV1 ovarian) 0.965 µM | GI50 (K-562 leukemia) 0.959 µM | GI50 (KM12 colon) > 27.8 µM | GI50 (LOX IMVI melanoma) 0.581 µM | GI50 (M14 melanoma) 0.803 µM | GI50 (MALME-3M melanoma) 1 µM | GI50 (MDA-MB-231 breast) 0.868 µM | GI50 (MDA-MB-435) 3 µM | GI50 (MOLT-4 leukemia) 11.5 µM | GI50 (NCI-H226 lung) 2.22 µM | GI50 (NCI-H23 lung) 9.44 µM | GI50 (NCI-H460 lung) > 100 µM | GI50 (NCI-H522 lung) 2.64 µM | GI50 (NCI/ADR-RES ovarian) 2.33 µM | GI50 (OVCAR-3 ovarian) 3.84 µM | GI50 (OVCAR-4 ovarian) 1.03 µM | GI50 (OVCAR-5 ovarian) 5.87 µM | GI50 (OVCAR-8 ovarian) 11 µM | GI50 (PC-3 prostate) 2.88 µM | GI50 (RXF 393 renal) 1.26 µM | GI50 (SF-268 CNS) > 100 µM | GI50 (SF-295 CNS) 1.84 µM | GI50 (SF-539 CNS) 2.05 µM | GI50 (SK-MEL-2 melanoma) > 89.5 µM | GI50 (SK-MEL-28 melanoma) > 25.8 µM | GI50 (SK-MEL-5 melanoma) 3.81 µM | GI50 (SK-OV-3 ovarian) 0.634 µM | GI50 (SN12C renal) 21.4 µM | GI50 (SNB-19 CNS) 4.81 µM | GI50 (SW-620 colon) > 100 µM | GI50 (T-47D breast) 0.585 µM | GI50 (U251 CNS) 30.9 µM | GI50 (UACC-257 melanoma) 3.92 µM
> 20.2 µM: TGI (RPMI-8226 leukemia)
active: GI50 (CAKI-1 renal) 0.151 µM | GI50 (HL-60(TB) leukemia) 0.144 µM | GI50 (HOP-92 NSCLC) 0.323 µM | GI50 (HS 578T breast) 0.254 µM | GI50 (HT29 colon) 0.415 µM | GI50 (MCF7 breast) 0.329 µM | GI50 (RPMI-8226 leukemia) 0.267 µM | GI50 (SNB-75 CNS) 0.0166 µM | GI50 (SR leukemia) 0.267 µM | GI50 (TK-10 renal) 0.312 µM | GI50 (UACC-62 melanoma) 0.302 µM | GI50 (UO-31 renal) 0.18 µM
> 25.3 µM: TGI (RXF 393 renal)
> 31.2 µM: TGI (HS 578T breast)
> 100 µM: TGI (786-0 renal) | TGI (A549 NSCLC) | TGI (ACHN renal) | TGI (BT-549 breast) | TGI (CAKI-1 renal) | TGI (CCRF-CEM leukemia) | TGI (COLO 205 colon) | TGI (DU-145 prostate) | TGI (EKVX NSCLC) | TGI (HCC-2998 colon) | TGI (HCT-116 colon) | TGI (HCT-15 colon) | TGI (HL-60(TB) leukemia) | TGI (HOP-62 NSCLC) | TGI (HOP-92 NSCLC) | TGI (HT29 colon) | TGI (IGROV1 ovarian) | TGI (K-562 leukemia) | TGI (KM12 colon) | TGI (M14 melanoma) | TGI (MALME-3M melanoma) | TGI (MCF7 breast) | TGI (MDA-MB-231 breast) | TGI (MDA-MB-435) | TGI (MOLT-4 leukemia) | TGI (NCI-H226 lung) | TGI (NCI-H23 lung) | TGI (NCI-H460 lung) | TGI (NCI-H522 lung) | TGI (NCI/ADR-RES ovarian) | TGI (OVCAR-3 ovarian) | TGI (OVCAR-4 ovarian) | TGI (OVCAR-5 ovarian) | TGI (OVCAR-8 ovarian) | TGI (PC-3 prostate) | TGI (SF-268 CNS) | TGI (SF-295 CNS) | TGI (SF-539 CNS) | TGI (SK-MEL-2 melanoma) | TGI (SK-MEL-28 melanoma) | TGI (SK-MEL-5 melanoma) | TGI (SK-OV-3 ovarian) | TGI (SN12C renal) | TGI (SNB-19 CNS) | TGI (SR leukemia) | TGI (SW-620 colon) | TGI (T-47D breast) | TGI (TK-10 renal) | TGI (U251 CNS) | TGI (UACC-257 melanoma) | TGI (UACC-62 melanoma) | TGI (UO-31 renal)
0.171 µM: TGI (SNB-75 CNS)

— PubChem BioAssay (NCI)
